Reference: ChEMBL document CHEMBL4421722, “Inhibitors of protein prenyltransferases” (2013)
Calls of active or inactive are those of the source. No cut-off for these calls is given here.

Tests used:
ASPC1 = experiment: Antiproliferative activity against human AsPC1 cells assessed as inhibition of cell proliferation incubated for 6 days by CCK8 assay; format: functional, cell-based; conditions: ASPC1, 144 h
MIA PaCa-2 = experiment: Antiproliferative activity against human MIAPaCa2 cells assessed as inhibition of cell proliferation incubated for 72 hrs by CCK8 assay; format: functional, cell-based; conditions: MIA PaCa-2, 72 h
CFPAC-1 = experiment: Antiproliferative activity against human CFPAC-1 cells assessed as inhibition of cell proliferation incubated for 72 hrs by CCK8 assay; format: functional, cell-based; conditions: CFPAC-1, 72 h
Capan-2 = experiment: Antiproliferative activity against human Capan2 cells assessed as inhibition of cell proliferation incubated for 72 hrs by CCK8 assay; format: functional, cell-based; conditions: Capan-2, 72 h
[1] = Antiproliferative activity against human MCF10A cells assessed as inhibition of cell proliferation incubated for 72 hrs by CCK8 assay; format: cell-based, MCF-10A
[2] = Inhibition of rat recombinant geranylgeranyltransferase type I expressed in Escherichia coli assessed as reduction in geranylgeranylation of RhoA incubated for 30 mins in presence of [3H]GGPP by scintillation counting assay relative to control
MCF7 = experiment: Antiproliferative activity against human MCF7 cells assessed as inhibition of cell proliferation incubated for 6 days by CCK8 assay; format: functional, cell-based; conditions: MCF7, 144 h
BT-474 = experiment: Antiproliferative activity against human BT474 cells assessed as inhibition of cell proliferation incubated for 72 hrs by CCK8 assay; format: functional, cell-based; conditions: BT-474, 72 h
Jurkat = experiment: Antiproliferative activity against human Jurkat cells assessed as inhibition of cell proliferation incubated for 72 hrs by CCK8 assay; format: functional, cell-based
PANC-1 = experiment: Antiproliferative activity against human PANC1 cells assessed as inhibition of cell proliferation incubated for 72 hrs by CCK8 assay; format: functional, cell-based; conditions: PANC-1, 72 h
K562 [3] = experiment: Antiproliferative activity against human K562 cells assessed as inhibition of cell proliferation incubated for 72 hrs by CCK8 assay; format: functional, cell-based; conditions: for GI50: K562, 72 h
Rattus norvegicus [4] = organism: Rattus norvegicus; experiment: Inhibition of rat recombinant geranylgeranyltransferase type I expressed in Escherichia coli assessed as residual enzyme activity for geranylgeranylation of RhoA at 50 uM incubated for 30 mins in presence of [3H]GGPP by scintillation counting assay relative to control
Rattus norvegicus [5] = organism: Rattus norvegicus; experiment: Inhibition of rat recombinant geranylgeranyltransferase type I expressed in Escherichia coli assessed as residual enzyme activity for geranylgeranylation of K-Ras4B at 50 uM incubated for 30 mins in presence of [3H]GGPP by scintillation counting assay relative to control
Rattus norvegicus [6] = organism: Rattus norvegicus; experiment: (§1) Competitive inhibition of rat recombinant geranylgeranyltransferase type I expressed in Escherichia coli assessed as reduction in geranylgeranylation of RhoA incubated for 30 mins in presence of fixed level of [3H]GGPP and varying RhoA levels by scintillation counting assay relative to control
HEK293 [7] = experiment: Inhibition of geranylgeranyltransferase type I in HEK293 cells expressing Myc-HA-tagged Rheb-CVSL assessed as effect on unprenylated Rap1 accumulation at 12.5 to 50 uM incubated for 48 hrs by SDS-PAGE and immunoblot analysis; format: cell-based; conditions: Homo sapiens
[8] = biological target: Protein farnesyltransferase (Rattus norvegicus) (UniProt Q04631+Q02293); experiment: Inhibition of rat recombinant FTase alpha/beta expressed in Escherichia coli at 50000 nM using K-Ras4B as a substrate as and [3H]farnesyl pyrophosphate incubated for 30 mins by scintillation counting assay
HEK293 [9] = experiment: Inhibition of geranylgeranyltransferase type I in HEK293 cells expressing Myc-HA-tagged Rheb-WT assessed as effect on unprenylated Rap1 accumulation at 3.1 to 25 uM incubated for 48 hrs by SDS-PAGE and immunoblot analysis; format: cell-based; conditions: Homo sapiens
Rattus norvegicus [10] = organism: Rattus norvegicus; experiment: Competitive inhibition of rat recombinant geranylgeranyltransferase type I expressed in Escherichia coli assessed as reduction in geranylgeranylation of RhoA incubated for 30 mins in presence of varying level of [3H]GGPP and fixed RhoA levels by scintillation counting assay relative to control
K562 [11] = experiment: Induction of cell cycle arrest in human K562 cells assessed as accumulation at G1 phase up to […] incubated for 48 hrs by flow cytometry; format: functional, cell-based
Rattus norvegicus [12] = organism: Rattus norvegicus; experiment: as §1, with “Uncompetitive” for “Competitive”, “varying” for “fixed”, “fixed” for “varying”, “by Michaelis-Menten plot analysis” for “relative to control”
[13] = biological target: Geranylgeranyl transferase type-2 (Homo sapiens) (UniProt P53611+Q92696); experiment: Inhibition of RabGGTase (unknown origin) at 50000 nM using YPTI as substrate protein and [3H]geranylgeranyl pyrophosphate incubated for 20 mins by scintillation counting assay; format: protein-complex assay
MDA-MB-231 = experiment: Antiproliferative activity against human MDA-MB-231 cells assessed as inhibition of cell proliferation incubated for 72 hrs by CCK8 assay; format: functional; conditions: MDA-MB-231, 72 h
[14] = biological target: T1, Geranylgeranyl transferase type-2 (Homo sapiens, UniProt P53611+Q92696); experiment: Inhibition of RabGGTase (unknown origin) using YPTI as substrate protein and [3H]geranylgeranyl pyrophosphate incubated for 20 mins by scintillation counting assay; format: protein-complex assay
T1 sequence (P53611 whole entry): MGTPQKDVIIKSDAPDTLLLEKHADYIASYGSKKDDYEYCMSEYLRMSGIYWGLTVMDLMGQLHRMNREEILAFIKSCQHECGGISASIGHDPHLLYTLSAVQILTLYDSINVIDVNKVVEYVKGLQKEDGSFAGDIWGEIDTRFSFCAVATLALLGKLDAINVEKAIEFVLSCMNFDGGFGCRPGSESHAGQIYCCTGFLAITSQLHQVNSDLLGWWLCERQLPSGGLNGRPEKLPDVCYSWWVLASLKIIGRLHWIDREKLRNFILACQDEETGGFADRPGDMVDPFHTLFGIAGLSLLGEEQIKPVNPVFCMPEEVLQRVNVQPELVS
T1 sequence (Q92696 whole entry): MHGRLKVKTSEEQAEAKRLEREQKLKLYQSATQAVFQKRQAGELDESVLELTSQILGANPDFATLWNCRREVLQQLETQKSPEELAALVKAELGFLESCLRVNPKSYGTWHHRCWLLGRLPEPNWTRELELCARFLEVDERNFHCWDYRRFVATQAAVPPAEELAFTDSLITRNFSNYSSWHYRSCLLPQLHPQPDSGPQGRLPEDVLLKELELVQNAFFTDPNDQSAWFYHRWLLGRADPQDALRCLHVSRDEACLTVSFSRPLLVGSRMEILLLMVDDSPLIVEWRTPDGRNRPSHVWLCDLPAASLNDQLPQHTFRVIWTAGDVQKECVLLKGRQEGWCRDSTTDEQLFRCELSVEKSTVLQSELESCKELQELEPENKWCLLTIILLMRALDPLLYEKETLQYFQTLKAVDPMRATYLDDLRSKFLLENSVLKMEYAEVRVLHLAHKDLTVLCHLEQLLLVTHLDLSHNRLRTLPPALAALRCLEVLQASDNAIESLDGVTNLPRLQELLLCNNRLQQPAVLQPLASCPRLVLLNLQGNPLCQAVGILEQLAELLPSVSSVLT

[15] = biological target: Protein farnesyltransferase (Rattus norvegicus, UniProt Q02293+Q04631); experiment: Inhibition of rat recombinant FTase alpha/beta expressed in Escherichia coli using K-Ras4B as a substrate as and [3H]farnesyl pyrophosphate incubated for 30 mins by scintillation counting assay

GI50 (ASPC1)	GI50 (MIA PaCa-2)	IC50 [2]	GI50 (MCF7)	GI50 (BT-474)	GI50 (Jurkat)	GI50 (PANC-1)	GI50 (K562 [3])	Activity (Rattus norvegicus [4])	Activity (Rattus norvegicus [5])	Compound	GI50 (CFPAC-1)	GI50 (Capan-2)	GI50 at 72 h [1]	further results
12.4 µM	7.48 µM	–	–	–	–	–	–	–	–	Cc1ccccc1S(=O)(=O)N1[C@@H](c2ccc(Cl)cc2)C(C(=O)N[C@@H](Cc2ccccc2)C(=O)O)=C[C@H]1C(C)(C)C	6.38 µM	11.5 µM	–	–
8.61 to 11.4 µM	6.7 to 7.17 µM	10 to 50 µM	3.1 to 4.71 µM	10.1 to 10.8 µM	6.4 to 9.76 µM	8.6 to 8.85 µM	5.95 to 6.3 µM	–	–	Cc1ccccc1S(=O)(=O)N1[C@@H](c2ccc(Cl)cc2)C(C(=O)N[C@@H](Cc2ccccc2)C(N)=O)=C[C@H]1C(C)CC(C)(C)C (stereo not given in full)	–	7.5 to 10.5 µM	9.16 to 11.3 µM	–

More lines, now with the values behind:

Compound	GI50 (ASPC1)	GI50 (MIA PaCa-2)	IC50 [2]	GI50 (MCF7)	GI50 (BT-474)	GI50 (Jurkat)	GI50 (PANC-1)	GI50 (K562 [3])	Activity (Rattus norvegicus [4])	Activity (Rattus norvegicus [5])	GI50 (CFPAC-1)	GI50 (Capan-2)	GI50 at 72 h [1]	further results
Cc1ccccc1S(=O)(=O)N1[C@@H](c2cccc(Cl)c2)C(C(=O)N[C@@H](CC(C)C)C(N)=O)=CC[C@H]1c1ccc(Cl)cc1	–	12 µM	> 50 µM	10.9 µM	–	6.1 µM	–	6.15 µM	–	–	13.7 µM	14 µM	> 20 µM	–
Cc1ccccc1S(=O)(=O)N1[C@@H](c2cccc(Cl)c2)C(C(=O)O)=CC[C@H]1c1ccc(Cl)cc1	–	–	0.31 to 0.313 µM	–	–	20 µM	–	–	7.5 to 24.8%	14.7 to 41.7%	–	–	–	inhibition (Rattus norvegicus [6]): Active; inhibition (HEK293 [7]): Active; inhibition [8]: inactive; inhibition (HEK293 [9]): Active; inhibition (Rattus norvegicus [10]): inactive; Activity (K562 [11]): Active; inhibition (K562 [3]): Active; inhibition (Rattus norvegicus [12]): Active; inhibition [13]: inactive
CC(C)(C)[C@@H]1C=C(C(=O)N[C@@H](Cc2ccccc2)C(N)=O)[C@H](c2ccc(Br)cc2)N1S(=O)(=O)c1ccccc1Cl	12.2 to 16.8 µM	6.15 to 12.1 µM	6 to 16 µM	–	9.08 to 9.9 µM	4.74 to 8.75 µM	9.05 to 12 µM	5.21 to 9.18 µM	–	–	6.16 to 6.3 µM	8.32 to 10.7 µM	–	GI50 (MDA-MB-231): 4.43 to 11.3 µM
Cc1ccc(S(=O)(=O)N2[C@H](CC3CCCC3)[C@@H](SCCC(=O)OC(C)(C)C)[C@@H](C(=O)O)[C@@H]2c2cccc(Cl)c2)cc1	–	–	8.7 µM	–	–	–	–	–	5.6%	20.6%	–	–	–	IC50 [14]: 4.7 µM; IC50 [15]: > 100 µM
